Marks after values point to notes of the source that are not given here.
Experiments:
miR-34a [1] = assay: miR-34a reporter luciferase assay in Huh7 cells; type: cell-based, human
Procedure: The pMIR-REPORT™ luciferase plasmid (1 μg; Ambion) was sequentially double digested with Sac I and Hind III (10 units each, 50 μL reaction; NEB) and was gel purified. Double stranded insert DNA encoding the miR-34a binding site was synthesized through standard oligonucleotide synthesis methods. The sequences used were Forward: 5′z […]-3′ (SEQ ID NO:1) and Reverse: 5′: […]-3′ (SEQ ID NO:2). The insert was hybridized (heated to 95° C., and cooled to 4° C. over 30 min, then held at 4° C. for 60 min) and ligated with T4 ligase (200 units, 10 μL reaction, 1:10 vector/insert ratio; NEB) into the digested pMIR-REPORT™ luciferase vector. Positive colonies were selected by PCR colony screens, and the construction of the pMIR-REPORT™-miR-34a vector was confirmed by double enzyme digestion with NheI, MluI and Nhe I, Hind III (NEB). The luciferase reporter vector containing the miR-34a promoter was kindly provided by Prof. Mendell J T from Johns Hopkins University (21).
Huh7 cells were seeded into 96-well plates 12 h prior to transfection. MiR-34a reporter and the control vector were respectively co-transfected with Renilla luciferase pRL-SV40 into Huh7 cells. All transfections were performed in triplicate. The cells were incubated at 37° C. for 4 h followed by the replacement of transfection media with standard DMEM growth media with 10 μM of the natural products library (NPL) compounds (Tim Tec; 0.1% DMSO final concentration). This library contains 640 compounds including natural products and their derivatives. After 48 h of incubation, the media was removed and cells were lysed and the luciferase signals were measured by luciferase assay as described below.
MiR-34a reporter, the luciferase reporter vector containing miR-34a promoter and the control vectors were transfected into HCC cells 12 h before compound treatment. The Renilla luciferase vector pRL-SV40 was co-transfected as an internal control. HCC cells were then treated with compound for 48-72 h. The luciferase activity was measured by Dual Luciferase Reporter Assay (Promega) with a Wallac VICTOR^3V luminometer. The ratio of firefly luciferase to Renilla expression was calculated for each of the triplicates.

miR-34a [2] = assay: qRT-PCR of primary and mature miR-34a in HCC cells; type: cell-based, human; conditions: HCC cells (HepG2, FIG. 4B)
Procedure: (§1) Total RNA from cell cultures and HCC xenograft tumors were extracted using Trizol (Invitrogen) according to manufacturer's protocols. Total RNAs were dissolved into nuclease-free ddH2O. For protein extraction, cells and HCC xenograft tumors were lysed in 1×RIPA buffer with 1 mM PMSF and 1× complete protease inhibitor cocktail (Roche, Indianapolis, Ind.). Both RNA and protein were stored at −80° C.
(§2) Total RNA was reversely transcribed into cDNAs using High Capacity cDNA Reverse Transcription Kit (Applied Biosystems, Foster city, CA, USA) and nude RT kit (Invitrogen) individually. qRT-PCR was performed using SYBR Green PCR master mix (TaKaRa, Dalian, China). GAPDH was used as an endogenous control. For measuring miR-34a expression level, qPCR was performed by using SYBR Green PCR master mixture (Invitrogen) and U6 was used as the internal control. All samples were normalized to internal controls and fold changes were calculated by relative quantification (2^−ΔΔct).

HepG2 xenografted tumor = assay: HepG2 xenografted nude mice model, tumor growth; type: in vivo; conditions: 50 mg/kg, gavage once every two days
Procedure: (§3) Tumor volume was calculated as [(Length×Width×Height)[…]]. Treatment was continued for 24 d. Finally, all mice were sacrificed and tumors were excised. Tumor weight was recorded.

miR-34a [3] = assay: qRT-PCR of pri-miR-34a and miR-34a in xenografted tumors; type: in vivo, nude mice; conditions: excised tumors after 24 d gavage
Procedure: as §1, §2, §3

Cyclin D1 and Bcl-2 = assay: qRT-PCR of Cyclin D1 and Bcl-2 in xenografted tumors; type: in vivo, nude mice; conditions: excised tumors after 24 d gavage
Procedure: as §1, §2, §3

[4] = HepG2 xenograft model, survival, body weight and side effects
Procedure: 5×10^6 HepG2 cells were suspended in 100 μl serum-free medium and subcutaneously (s.c.) inoculated into the dorsal flanks of nude mice. When tumors reached 5-10 mm in diameter, mice were randomly divided into 4 groups (n=5). […] Vehicle alone and Sorafenib were used as the negative and positive control respectively. Tumor volumes and body weight were measured once every two days. Tumor volume was calculated as [(Length×Width×Height)±2]. Treatment was continued for 24 d. Finally, all mice were sacrificed and tumors were excised. Tumor weight was recorded.

**Q.** With `COc1ccc(-c2cc(=O)c3c(O)cc(O)cc3o2)cc1` [Acacetin, 5,7-dihydroxy-4′-methoxyflavone] as the compound, how does the “function as miR-34a activator, re-assayed in triplicate with miR-34a reporter system” value (miR-34a [1]) read?
**A.** functions as the miR-34a activators are confirmed

**Q.** Which “miR-34a expression after chemotherapeutic drugs” value (“miR-34a expression” below) (miR-34a [2]) does the source give for `CNC(=O)c1cc(Oc2ccc(NC(=O)Nc3ccc(Cl)c(C(F)(F)F)c3)cc2)ccn1` [Sorafenib, reference compound] here?
**A.** no effect

**Q.** And the “Tumor growth inhibition (%)” value (HepG2 xenografted tumor; 24 d)?
**A.** 84.22%

**Q.** And the “Tumor weight (g)” value (HepG2 xenografted tumor; day 24, mean (95% CI))?
**A.** 0.186 (95% CI = 0.14 − 0.23)** g

**Q.** And the “pri-miR-34a and miR-34a levels in xenografted tumors” value (miR-34a [3])?
**A.** no changes

**Q.** What about the “Cyclin D1 and Bcl-2 expression in xenografted tumors” value (Cyclin D1 and Bcl-2) of the same compound?
**A.** no changes

**Q.** And the “Body weight (g) initial” value ([4]; 50 mg/kg group, initial, mean (95% CI))?
**A.** 20.00(95% CI = 18.76 − 21.24)/ g

**Q.** What about the “Body weight (g) end” value ([4]; 50 mg/kg, end of 24 d treatment, mean (95% CI)) of the same compound?
**A.** 24.00(95% CI = 21.22 − 26.78) g

**Q.** What about the “Mice survival (n) initial/end” value ([4]; 50 mg/kg, gavage once every two days, 24 d) of the same compound?
**A.** 5/5

**Q.** With `N.N.[Cl][Pt][Cl]` [Cisplatin, reference compound] as the compound, how does the “miR-34a expression” value (miR-34a [2]) read?
**A.** no effect

**Q.** With `O=c1[nH]cc(F)c(=O)[nH]1` [5-Fluorouracil, reference compound] as the compound, how does the “miR-34a expression” value (miR-34a [2]) read?
**A.** no effect

**Q.** Which “miR-34a expression” value (miR-34a [2]) does the source give for `COc1cccc2c1C(=O)c1c(O)c3c(c(O)c1C2=O)C[C@@](O)(C(=O)CO)C[C@@H]3O[C@H]1C[C@H](N)[C@H](O)[C@H](C)O1` [Doxorubicin, reference compound] here?
**A.** no effect
